Assay [1] has as its target T1, NUAK family SNF1-like kinase 2 (Homo sapiens) (UniProt Q9H093).
T1 sequence (whole entry): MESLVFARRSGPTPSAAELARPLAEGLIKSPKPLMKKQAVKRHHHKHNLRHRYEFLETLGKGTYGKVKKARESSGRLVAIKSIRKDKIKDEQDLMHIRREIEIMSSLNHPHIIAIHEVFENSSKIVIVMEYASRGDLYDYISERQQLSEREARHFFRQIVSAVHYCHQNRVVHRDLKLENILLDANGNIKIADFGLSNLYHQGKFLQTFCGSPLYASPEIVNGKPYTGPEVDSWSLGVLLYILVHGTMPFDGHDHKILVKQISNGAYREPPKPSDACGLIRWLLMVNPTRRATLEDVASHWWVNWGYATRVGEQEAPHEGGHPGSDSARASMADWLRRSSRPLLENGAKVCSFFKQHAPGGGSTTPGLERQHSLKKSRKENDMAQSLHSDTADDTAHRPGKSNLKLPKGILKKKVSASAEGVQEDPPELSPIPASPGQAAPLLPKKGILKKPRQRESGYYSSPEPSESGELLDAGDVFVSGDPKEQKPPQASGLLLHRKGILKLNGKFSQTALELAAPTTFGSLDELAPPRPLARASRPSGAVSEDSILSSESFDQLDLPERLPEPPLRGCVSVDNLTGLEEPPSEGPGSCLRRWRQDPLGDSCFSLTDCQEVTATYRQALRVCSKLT
The experiment in a line: Residual activity of SNARK at 0.1 uM by microplate scintillation counting.

For assay [2], the target named is Ribosomal protein S6 kinase alpha-5 (Homo sapiens) (UniProt O75582). The experiment in a line: Residual activity of RPS6KA5 at 10 uM by microplate scintillation counting.
For assay [3], the target named is Receptor-type tyrosine-protein kinase FLT3 (Homo sapiens) (UniProt P36888). Briefly: Residual activity of wild type FLT3 at 10 uM by microplate scintillation counting.
For assay [4], the target named is Myosin light chain kinase 2, skeletal/cardiac muscle (Homo sapiens) (UniProt Q9H1R3). Briefly: Residual activity of MYLK2 at 1 uM by microplate scintillation counting.
Assay [5] addresses Serine/threonine-protein kinase pim-1 (Homo sapiens) (UniProt P11309). Briefly: Residual activity of PIM1 at 10 uM by microplate scintillation counting.
Assay [6] addresses Mitogen-activated protein kinase 14 (Homo sapiens) (UniProt Q16539). Briefly: Residual activity of p38alpha at 10 uM by microplate scintillation counting.
Assay [7] shares this target. Briefly: Residual activity of p38alpha at 1 uM by microplate scintillation counting.
The target of assay [8] is Tyrosine-protein kinase Yes (Homo sapiens) (UniProt P07947). The experiment in a line: Residual activity of YES at 0.1 uM by microplate scintillation counting.
Assay [9] deals with T2, Serine/threonine-protein kinase Chk1 (Homo sapiens) (UniProt O14757).
T2 sequence (whole entry): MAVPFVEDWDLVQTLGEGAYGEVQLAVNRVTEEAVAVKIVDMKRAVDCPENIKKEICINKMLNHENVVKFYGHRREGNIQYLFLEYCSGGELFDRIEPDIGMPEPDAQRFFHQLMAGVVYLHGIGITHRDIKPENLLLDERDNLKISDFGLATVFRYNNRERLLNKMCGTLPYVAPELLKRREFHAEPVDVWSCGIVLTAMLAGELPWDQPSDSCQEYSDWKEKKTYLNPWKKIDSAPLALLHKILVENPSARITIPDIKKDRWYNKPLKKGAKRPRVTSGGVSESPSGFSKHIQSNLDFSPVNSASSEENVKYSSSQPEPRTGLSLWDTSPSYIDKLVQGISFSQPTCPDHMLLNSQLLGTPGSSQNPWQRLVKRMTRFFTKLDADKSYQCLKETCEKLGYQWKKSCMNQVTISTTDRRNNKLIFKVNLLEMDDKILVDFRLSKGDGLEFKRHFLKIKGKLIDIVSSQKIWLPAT
The experiment in a line: Residual activity of CHK1 at 0.1 uM by microplate scintillation counting.

For assay [10], the target named is Tyrosine-protein kinase ABL2 (Homo sapiens) (UniProt P42684). Briefly: Residual activity of ABL2 at 0.1 uM by microplate scintillation counting.
Chain of Tyrosine-protein kinase ABL2 (Homo sapiens) (P42684 whole entry): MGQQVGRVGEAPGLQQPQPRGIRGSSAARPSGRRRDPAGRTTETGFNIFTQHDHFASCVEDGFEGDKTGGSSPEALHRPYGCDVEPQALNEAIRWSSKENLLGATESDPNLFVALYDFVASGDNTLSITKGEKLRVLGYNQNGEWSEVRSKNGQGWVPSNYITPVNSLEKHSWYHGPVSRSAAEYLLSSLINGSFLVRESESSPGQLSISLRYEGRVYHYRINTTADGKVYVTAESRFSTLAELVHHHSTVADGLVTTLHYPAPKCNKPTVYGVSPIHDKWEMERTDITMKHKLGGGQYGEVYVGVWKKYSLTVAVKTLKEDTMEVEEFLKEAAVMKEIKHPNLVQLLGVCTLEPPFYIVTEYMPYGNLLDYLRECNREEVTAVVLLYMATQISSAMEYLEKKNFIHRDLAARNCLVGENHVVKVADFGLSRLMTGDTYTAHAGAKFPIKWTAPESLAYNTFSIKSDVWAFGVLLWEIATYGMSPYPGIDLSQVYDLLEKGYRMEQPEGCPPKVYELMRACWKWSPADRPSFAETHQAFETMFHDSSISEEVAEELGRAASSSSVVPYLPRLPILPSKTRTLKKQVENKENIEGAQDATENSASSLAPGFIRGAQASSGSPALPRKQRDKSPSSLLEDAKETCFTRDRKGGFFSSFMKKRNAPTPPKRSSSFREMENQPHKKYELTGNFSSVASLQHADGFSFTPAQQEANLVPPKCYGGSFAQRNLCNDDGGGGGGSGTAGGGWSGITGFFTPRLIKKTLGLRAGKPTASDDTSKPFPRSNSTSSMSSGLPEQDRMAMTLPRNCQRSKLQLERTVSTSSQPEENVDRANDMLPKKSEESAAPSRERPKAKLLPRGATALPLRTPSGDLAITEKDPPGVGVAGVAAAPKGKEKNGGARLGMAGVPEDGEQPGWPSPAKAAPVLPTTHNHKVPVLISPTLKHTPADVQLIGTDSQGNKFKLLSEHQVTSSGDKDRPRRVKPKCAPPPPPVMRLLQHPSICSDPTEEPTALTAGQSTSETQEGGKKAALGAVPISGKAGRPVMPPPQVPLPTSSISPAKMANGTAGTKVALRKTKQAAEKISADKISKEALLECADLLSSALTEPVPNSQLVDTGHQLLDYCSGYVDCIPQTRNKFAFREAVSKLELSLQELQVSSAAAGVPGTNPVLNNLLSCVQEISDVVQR
The target in assay [11] is Angiopoietin-1 receptor (Homo sapiens, UniProt Q02763). The experiment in a line: Residual activity of TIE2 at 10 uM by microplate scintillation counting.
Chain of Angiopoietin-1 receptor (Q02763 whole entry): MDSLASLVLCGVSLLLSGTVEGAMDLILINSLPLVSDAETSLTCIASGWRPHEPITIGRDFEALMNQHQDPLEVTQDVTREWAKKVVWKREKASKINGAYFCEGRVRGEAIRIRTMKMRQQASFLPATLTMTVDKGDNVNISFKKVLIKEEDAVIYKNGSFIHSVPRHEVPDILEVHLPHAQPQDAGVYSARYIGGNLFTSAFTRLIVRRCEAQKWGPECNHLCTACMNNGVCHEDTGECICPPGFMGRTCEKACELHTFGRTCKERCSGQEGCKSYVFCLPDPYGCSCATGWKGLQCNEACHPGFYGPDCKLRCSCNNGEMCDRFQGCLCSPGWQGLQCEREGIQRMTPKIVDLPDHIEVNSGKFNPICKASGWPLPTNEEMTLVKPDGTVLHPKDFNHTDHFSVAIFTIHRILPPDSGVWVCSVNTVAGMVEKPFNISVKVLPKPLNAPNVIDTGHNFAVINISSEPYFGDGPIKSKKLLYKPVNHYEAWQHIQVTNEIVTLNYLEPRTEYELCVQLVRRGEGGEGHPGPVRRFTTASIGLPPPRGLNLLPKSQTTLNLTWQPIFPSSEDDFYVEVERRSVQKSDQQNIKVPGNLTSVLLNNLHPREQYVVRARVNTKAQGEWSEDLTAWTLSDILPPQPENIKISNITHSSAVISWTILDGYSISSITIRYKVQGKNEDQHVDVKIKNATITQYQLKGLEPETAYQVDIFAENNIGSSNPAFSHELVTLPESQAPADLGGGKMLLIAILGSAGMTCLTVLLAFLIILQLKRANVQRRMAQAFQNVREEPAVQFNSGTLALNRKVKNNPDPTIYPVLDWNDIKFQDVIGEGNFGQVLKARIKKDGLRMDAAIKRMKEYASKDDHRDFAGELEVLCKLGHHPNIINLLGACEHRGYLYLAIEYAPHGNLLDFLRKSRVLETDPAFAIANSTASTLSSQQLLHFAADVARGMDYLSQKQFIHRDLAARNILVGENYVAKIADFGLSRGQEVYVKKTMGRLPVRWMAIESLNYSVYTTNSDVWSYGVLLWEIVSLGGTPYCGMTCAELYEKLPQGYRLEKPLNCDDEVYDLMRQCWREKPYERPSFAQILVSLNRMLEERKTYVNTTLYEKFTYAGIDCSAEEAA
In assay [12] the target is Ribosomal protein S6 kinase alpha-3 (Homo sapiens) (UniProt P51812). Briefly: Residual activity of RPS6KA3 at 0.1 uM by microplate scintillation counting.
Assay [13] addresses SRSF protein kinase 1 (Homo sapiens) (UniProt Q96SB4). The experiment in a line: Residual activity of SRPK1 at 10 uM by microplate scintillation counting.
Assay [14] addresses Leukocyte tyrosine kinase receptor (Homo sapiens) (UniProt P29376). Briefly: Residual activity of LTK at 10 uM by microplate scintillation counting.
Assay [15] has as its target Ephrin type-A receptor 2 (Homo sapiens) (UniProt P29317). Briefly: Residual activity of EPHA2 at 1 uM by microplate scintillation counting.
Assay [16] has as its target Homeodomain-interacting protein kinase 3 (Homo sapiens) (UniProt Q9H422). Briefly: Residual activity of HIPK3 at 1 uM by microplate scintillation counting.
The target of assay [17] is Casein kinase I isoform epsilon (Homo sapiens) (UniProt P49674). The experiment in a line: Residual activity of CK1epsilon at 0.1 uM by microplate scintillation counting.
Assay [18] addresses Eukaryotic translation initiation factor 2-alpha kinase 1 (Homo sapiens) (UniProt Q9BQI3). Briefly: Residual activity of HRI at 1 uM by microplate scintillation counting.
The target of assay [19] is T3, Protein kinase C zeta type (Homo sapiens) (UniProt Q05513).
T3 sequence (whole entry): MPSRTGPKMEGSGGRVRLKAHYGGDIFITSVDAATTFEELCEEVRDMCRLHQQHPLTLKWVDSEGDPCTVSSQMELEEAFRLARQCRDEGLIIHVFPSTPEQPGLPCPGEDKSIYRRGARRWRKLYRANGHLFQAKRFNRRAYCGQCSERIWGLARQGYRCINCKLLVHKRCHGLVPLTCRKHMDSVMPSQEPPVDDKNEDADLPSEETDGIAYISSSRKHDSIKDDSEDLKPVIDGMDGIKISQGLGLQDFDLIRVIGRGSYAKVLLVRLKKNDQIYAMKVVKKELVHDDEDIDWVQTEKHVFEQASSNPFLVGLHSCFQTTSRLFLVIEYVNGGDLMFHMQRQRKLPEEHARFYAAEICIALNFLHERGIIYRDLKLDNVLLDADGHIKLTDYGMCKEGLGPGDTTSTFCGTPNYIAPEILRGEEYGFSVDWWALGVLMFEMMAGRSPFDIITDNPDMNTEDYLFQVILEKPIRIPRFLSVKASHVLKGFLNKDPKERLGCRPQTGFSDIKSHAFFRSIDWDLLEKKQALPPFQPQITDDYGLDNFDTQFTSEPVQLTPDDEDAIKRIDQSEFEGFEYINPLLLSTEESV
The experiment in a line: Residual activity of PKCzeta at 1 uM by microplate scintillation counting.

The target of assay [20] is Dual specificity protein kinase CLK1 (Homo sapiens) (UniProt P49759). The experiment in a line: Residual activity of CLK1 at 0.1 uM by microplate scintillation counting.

Chain of Ephrin type-A receptor 2 (Homo sapiens) (P29317 whole entry): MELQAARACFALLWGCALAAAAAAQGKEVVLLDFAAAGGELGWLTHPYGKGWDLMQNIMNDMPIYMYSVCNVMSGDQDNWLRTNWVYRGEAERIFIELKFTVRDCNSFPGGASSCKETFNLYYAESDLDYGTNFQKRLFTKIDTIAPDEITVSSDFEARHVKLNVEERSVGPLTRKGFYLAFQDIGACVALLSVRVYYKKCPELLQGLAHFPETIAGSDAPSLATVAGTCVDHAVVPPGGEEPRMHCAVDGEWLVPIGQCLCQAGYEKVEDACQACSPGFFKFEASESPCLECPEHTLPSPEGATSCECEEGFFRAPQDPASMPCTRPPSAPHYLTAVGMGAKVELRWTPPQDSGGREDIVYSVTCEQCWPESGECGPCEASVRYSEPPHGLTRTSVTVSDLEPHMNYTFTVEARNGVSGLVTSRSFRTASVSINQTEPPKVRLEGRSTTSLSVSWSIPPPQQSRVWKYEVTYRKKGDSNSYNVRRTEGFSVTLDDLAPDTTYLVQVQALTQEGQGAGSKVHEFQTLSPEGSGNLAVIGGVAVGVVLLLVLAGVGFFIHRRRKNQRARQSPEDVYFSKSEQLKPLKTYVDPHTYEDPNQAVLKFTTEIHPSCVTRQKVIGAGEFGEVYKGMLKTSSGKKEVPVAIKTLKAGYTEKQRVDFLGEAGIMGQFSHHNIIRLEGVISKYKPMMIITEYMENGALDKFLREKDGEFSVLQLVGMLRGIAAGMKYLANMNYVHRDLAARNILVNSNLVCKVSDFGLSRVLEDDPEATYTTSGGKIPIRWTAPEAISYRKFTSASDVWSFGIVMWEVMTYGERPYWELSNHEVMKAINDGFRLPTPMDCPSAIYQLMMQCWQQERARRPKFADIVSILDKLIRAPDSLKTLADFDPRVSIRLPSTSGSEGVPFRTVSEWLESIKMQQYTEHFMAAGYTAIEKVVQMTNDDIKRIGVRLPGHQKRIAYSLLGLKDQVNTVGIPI
Chain of Serine/threonine-protein kinase pim-1 (Homo sapiens) (P11309 whole entry, looked up): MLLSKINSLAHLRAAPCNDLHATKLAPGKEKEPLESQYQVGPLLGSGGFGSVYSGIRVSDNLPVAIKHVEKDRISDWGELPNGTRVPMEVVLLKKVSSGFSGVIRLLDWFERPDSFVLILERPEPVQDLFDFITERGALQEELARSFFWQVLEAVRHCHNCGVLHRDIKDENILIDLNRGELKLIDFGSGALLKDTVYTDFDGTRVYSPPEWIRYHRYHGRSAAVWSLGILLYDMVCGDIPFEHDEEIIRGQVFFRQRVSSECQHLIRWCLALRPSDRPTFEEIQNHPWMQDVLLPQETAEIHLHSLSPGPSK
Chain of Homeodomain-interacting protein kinase 3 (Homo sapiens) (Q9H422 whole entry, looked up, canonical isoform): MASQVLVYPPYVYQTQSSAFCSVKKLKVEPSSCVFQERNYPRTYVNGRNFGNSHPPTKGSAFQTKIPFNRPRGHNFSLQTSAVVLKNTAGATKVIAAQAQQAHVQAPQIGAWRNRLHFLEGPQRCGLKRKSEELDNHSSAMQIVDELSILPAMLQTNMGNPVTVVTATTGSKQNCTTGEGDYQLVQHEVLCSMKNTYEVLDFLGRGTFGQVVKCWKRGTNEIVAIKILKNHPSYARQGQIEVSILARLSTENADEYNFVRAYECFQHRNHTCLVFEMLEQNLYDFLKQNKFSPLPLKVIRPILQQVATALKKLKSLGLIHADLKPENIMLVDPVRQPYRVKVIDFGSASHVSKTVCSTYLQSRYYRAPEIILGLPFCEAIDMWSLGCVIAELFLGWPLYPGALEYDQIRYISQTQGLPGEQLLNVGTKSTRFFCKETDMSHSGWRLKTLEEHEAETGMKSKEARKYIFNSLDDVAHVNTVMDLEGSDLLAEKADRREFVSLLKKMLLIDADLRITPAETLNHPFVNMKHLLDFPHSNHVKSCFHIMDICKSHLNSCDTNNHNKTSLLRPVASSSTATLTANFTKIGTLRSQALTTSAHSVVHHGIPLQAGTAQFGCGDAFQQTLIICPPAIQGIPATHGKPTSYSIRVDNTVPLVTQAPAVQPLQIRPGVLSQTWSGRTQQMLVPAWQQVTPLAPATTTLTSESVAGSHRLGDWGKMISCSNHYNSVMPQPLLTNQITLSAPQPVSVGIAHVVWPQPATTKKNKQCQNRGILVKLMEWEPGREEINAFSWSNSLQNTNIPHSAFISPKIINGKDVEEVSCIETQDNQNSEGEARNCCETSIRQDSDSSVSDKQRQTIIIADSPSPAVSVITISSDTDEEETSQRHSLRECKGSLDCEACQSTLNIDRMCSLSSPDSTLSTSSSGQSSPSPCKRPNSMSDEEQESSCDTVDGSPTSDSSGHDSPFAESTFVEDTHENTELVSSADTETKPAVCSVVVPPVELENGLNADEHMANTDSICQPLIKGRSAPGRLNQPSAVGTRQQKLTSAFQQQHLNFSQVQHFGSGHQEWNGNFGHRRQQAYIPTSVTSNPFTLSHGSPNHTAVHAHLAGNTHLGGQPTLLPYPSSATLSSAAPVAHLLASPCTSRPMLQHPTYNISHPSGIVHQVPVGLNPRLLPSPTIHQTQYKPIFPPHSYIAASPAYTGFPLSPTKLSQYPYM

As to `COc1cc2c(Oc3ccc(-c4nc5ccccc5s4)cc3)ncnc2cc1OCCCN1CCN(C)CC1`, the residual activity was determined as 96% in assay [1]; 146% in assay [2]; 13% in assay [3]; 81% in [4]; 124% in assay [5]; 327% in assay [6]. Further, the residual activity amounted to 145% in assay [7]; 93% in [8]; 99% in assay [9]; 100% in [10]; 3% in assay [11]; 93% in assay [12]. The residual activity in assay [13] was 98%; in assay [14], 163%; in assay [15], 111%; in [16] it was 84%; in assay [17] it was 80%; in [18], 108%. Further, the residual activity was 92% in assay [19] and 94% in [20].
Regarding `COc1cc2c(Oc3ccc(-c4nc5ccccc5s4)cc3)ncnc2cc1OCCCN1CCCC1`, the residual activity in assay [1] was determined as 84%; in assay [2] it was 140%; in assay [3], 42%; in assay [4] it was 140%; in [5], 74%; in assay [6] it was 325%. Besides, the residual activity in assay [7] was found to be 143%; in assay [8], 98%; in [9], 94%; in [10], 116%; in assay [11], 4%; in [12], 94%. The residual activity in assay [13] came out at 107%; in [14] it was 200%; in assay [15], 97%; in [16], 86%; in [17], 89%; in [18], 108%. The residual activity is 109% in assay [19] and 114% in [20].
Take `COc1cc2c(Oc3ccc(-c4nc5ccccc5s4)cc3F)ncnc2cc1OCCCN1CCN(C)CC1`: the residual activity came out at 88% in [1]; 151% in assay [2]; 6% in [3]; 99% in assay [4]; 97% in [5]; 320% in assay [6]. Further, the residual activity in assay [7] came out at 148%; in [8] it was 80%; in [9], 106%; in assay [10] it was 96%; in assay [11], 4%; in assay [12] it was 95%. For the same compound, the residual activity in assay [13] stood at 64%; in assay [14] it was 89%; in [15], 109%; in assay [16], 81%; in [17] it was 79%; in assay [18], 87%. In addition, the residual activity in [19] is 107%; in [20], 96%.

Values taken from ChEMBL document CHEMBL1152560, “Substituted 2-arylbenzothiazoles as kinase inhibitors: hit-to-lead optimization” (Bioorg Med Chem, 2009).
